Data taken from patent publication US12606561B2, “Substituted pyrazolo[1,5-a][1,3,5]triazines as CDK inhibitors” (QURIENT CO., LTD., priority 2018, dated 2026).

What was measured:
CDK7/Cyclin H/MNAT1 = molecular target: T1, CDK7/Cyclin H/MNAT1 (Homo sapiens, UniProt P50613); test: Enzymatic assay for CDK7 (LANCE Ultra kinase assay, FRET based); format: biochemical; details: for IC50: ATP at Km
T1 construct: purchased Invitrogen PR6749B
Procedure, shortened: (§1)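 Kinase activity of each purified CDK/cyclin complex was followed in a FRET format where a Europium anti-phospho-antibody recognises phosphorylated ULight-labeled peptide. ATP was held at its Km.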

OVCAR-3 = OVCAR-3 viability assay (CellTiter-Glo, 72 hours); format: cell-based; details: Homo sapiens; OVCAR-3 cells
Procedure, shortened: (§2)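 Each line was plated at its own density (1×10^4, 5×10^3 and 1×10^3 cells/well for MV4-11, OVCAR-3 and A2780 respectively) in RPMI-1640 with 10% FBS. Treatment with compound, 0.0015 uM to 10 uM and DMSO under 0.1%, lasted 72 h. Surviving cells were quantified by CellTiter-Glo.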

CDK2/Cyclin A = molecular target: T2, CDK2/Cyclin A (Homo sapiens, UniProt P24941); test: Enzymatic assay for CDK2 (LANCE Ultra kinase assay, FRET based); format: biochemical; details: ATP at Km
T2 construct: purchased Invitrogen PV6290
Procedure, shortened: (§3)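 Compounds tested as 8 doses in 4-fold steps against CDK2/Cyclin A ([…]) or CDK5/p25 ([…]), with ATP at its Km and 68 nM ULight-MBP substrate. After 60 min at 23° C., EDTA plus Eu-labelled anti-phospho-MBP added; TR-FRET (615/665 nm) read after another 60 min.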

CDK5/p25 = molecular target: T3, CDK5/p25 (Homo sapiens, UniProt Q00535); test: Enzymatic assay for CDK5 (LANCE Ultra kinase assay, FRET based); format: biochemical; details: ATP at Km
T3 construct: purchased Invitrogen PR8543B
T3 sequence (Q00535 whole entry): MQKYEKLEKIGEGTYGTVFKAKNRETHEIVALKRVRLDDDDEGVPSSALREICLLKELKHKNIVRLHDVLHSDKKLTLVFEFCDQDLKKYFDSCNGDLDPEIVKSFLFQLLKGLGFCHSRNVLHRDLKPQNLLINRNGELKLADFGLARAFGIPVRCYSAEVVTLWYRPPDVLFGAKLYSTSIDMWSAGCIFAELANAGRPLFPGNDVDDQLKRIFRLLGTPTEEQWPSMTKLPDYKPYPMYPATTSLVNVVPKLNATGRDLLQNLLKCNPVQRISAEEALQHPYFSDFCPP
T3 sequence (Q15078 99-307 partner limits assumed): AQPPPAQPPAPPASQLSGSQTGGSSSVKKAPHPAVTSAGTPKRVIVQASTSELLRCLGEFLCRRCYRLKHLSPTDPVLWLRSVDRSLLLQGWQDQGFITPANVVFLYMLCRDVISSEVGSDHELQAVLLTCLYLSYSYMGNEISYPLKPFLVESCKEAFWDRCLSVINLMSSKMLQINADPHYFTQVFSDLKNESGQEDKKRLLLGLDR
Procedure, shortened: as §3

CDK1/Cyclin B = molecular target: T4, CDK1/Cyclin B (Homo sapiens, UniProt P06493); test: Enzymatic assay for CDK1 (LANCE Ultra kinase assay, FRET based); format: biochemical; details: ATP at Km; read-out: CDK1 enzymatic activity IC50
T4 construct: purchased Invitrogen PR4768C
T4 sequence (P06493 whole entry): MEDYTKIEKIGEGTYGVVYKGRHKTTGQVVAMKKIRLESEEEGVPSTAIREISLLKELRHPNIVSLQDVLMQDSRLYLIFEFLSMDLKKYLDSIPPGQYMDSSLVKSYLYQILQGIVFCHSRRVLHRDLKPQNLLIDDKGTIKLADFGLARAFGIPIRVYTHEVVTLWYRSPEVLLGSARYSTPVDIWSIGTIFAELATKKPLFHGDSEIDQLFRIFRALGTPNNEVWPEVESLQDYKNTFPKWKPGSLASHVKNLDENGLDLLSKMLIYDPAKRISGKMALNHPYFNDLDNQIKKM
T4 sequence (P14635 whole entry partner): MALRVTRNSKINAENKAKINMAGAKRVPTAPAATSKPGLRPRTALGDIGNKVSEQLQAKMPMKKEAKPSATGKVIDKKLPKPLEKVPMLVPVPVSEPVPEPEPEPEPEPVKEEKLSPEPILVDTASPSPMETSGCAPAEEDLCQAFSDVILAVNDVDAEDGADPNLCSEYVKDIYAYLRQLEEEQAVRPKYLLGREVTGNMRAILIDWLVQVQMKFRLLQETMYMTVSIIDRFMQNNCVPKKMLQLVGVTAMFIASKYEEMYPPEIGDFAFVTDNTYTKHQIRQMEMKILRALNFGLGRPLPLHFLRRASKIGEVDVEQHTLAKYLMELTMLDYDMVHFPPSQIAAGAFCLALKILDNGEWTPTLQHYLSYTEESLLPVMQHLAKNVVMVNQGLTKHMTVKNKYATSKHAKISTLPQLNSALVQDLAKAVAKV
Procedure, shortened: as §1

A2780 = A2780 viability assay (CellTiter-Glo, 72 hours); format: cell-based; details: Homo sapiens; A2780 cells
Procedure, shortened: as §2

T1 sequence (P50613 whole entry): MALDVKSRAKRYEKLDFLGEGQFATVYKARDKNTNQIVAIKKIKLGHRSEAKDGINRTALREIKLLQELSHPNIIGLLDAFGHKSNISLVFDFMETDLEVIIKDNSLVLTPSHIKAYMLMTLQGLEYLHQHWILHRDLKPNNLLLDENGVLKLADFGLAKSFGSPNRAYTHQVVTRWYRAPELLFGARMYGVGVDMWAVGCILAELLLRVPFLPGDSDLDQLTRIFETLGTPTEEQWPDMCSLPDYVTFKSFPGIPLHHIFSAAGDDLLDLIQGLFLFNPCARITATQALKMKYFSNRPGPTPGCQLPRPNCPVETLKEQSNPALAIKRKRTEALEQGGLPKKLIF
T1 sequence (P51946 whole entry partner): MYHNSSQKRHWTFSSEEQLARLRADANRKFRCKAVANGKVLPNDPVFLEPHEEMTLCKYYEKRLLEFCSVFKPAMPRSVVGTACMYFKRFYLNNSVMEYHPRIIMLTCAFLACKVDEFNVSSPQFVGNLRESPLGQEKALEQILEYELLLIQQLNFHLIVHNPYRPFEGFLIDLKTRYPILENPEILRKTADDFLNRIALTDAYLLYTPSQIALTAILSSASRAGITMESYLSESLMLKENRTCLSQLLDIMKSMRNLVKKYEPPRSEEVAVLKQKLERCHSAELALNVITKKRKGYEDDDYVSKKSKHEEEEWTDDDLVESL
T1 sequence (P51948 whole entry partner): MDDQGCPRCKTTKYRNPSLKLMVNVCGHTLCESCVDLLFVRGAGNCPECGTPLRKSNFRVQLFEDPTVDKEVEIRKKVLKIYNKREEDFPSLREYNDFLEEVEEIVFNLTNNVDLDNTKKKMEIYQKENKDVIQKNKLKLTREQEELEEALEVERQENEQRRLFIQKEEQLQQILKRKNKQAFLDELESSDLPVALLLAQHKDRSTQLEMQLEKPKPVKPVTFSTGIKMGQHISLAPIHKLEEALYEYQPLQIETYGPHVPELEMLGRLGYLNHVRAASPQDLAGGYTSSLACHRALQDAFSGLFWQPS

Row | IC50 (CDK7/Cyclin H/MNAT1) [µM] | CDK1/CDK7: Selectivity of CDK7 inhibition over CDK1 inhibition (CDK7/Cyclin H/MNAT1) | CDK2/CDK7: Selectivity of CDK7 inhibition over CDK2 inhibition (CDK7/Cyclin H/MNAT1) | CDK5/CDK7: Selectivity of CDK7 inhibition over CDK5 inhibition (CDK7/Cyclin H/MNAT1) | IC50 (OVCAR-3) [µM] | IC50 (CDK2/Cyclin A) [µM] | IC50 (CDK5/p25) [µM] | IC50 (CDK1/Cyclin B) [µM] | IC50 (A2780) [µM] | SMILES
1 | 0.1 to 1 | B (B indicates 50 < [fold] ≤ 500) | B (B indicates 50 < [fold] ≤ 500) | B (B indicates 50 < [fold] ≤ 500) | < 1 | > 1 | > 1 | > 1 | < 1 | C=C(F)C(=O)Nc1ccc2c(-c3ccccc3CNc3nc(N4CO[C@H]5CN(C)CC[C@@H]5C4)nc4c(C(C)C)cnn34)nccc2c1 [Compound 165]
2 | < 0.1 | A (A indicates [fold] > 500) | A (A indicates [fold] > 500) | A (A indicates [fold] > 500) | > 10 | > 1 | > 1 | > 1 | < 1 | C=C(F)C(=O)Nc1ccc2c(-c3ccccc3CNc3nc(N[C@@H]4CCCNC4)nc4c(C(C)C)cnn34)nccc2c1 [Compound 166]
3 | 0.1 to 1 | B (B indicates 50 < [fold] ≤ 500) | B (B indicates 50 < [fold] ≤ 500) | B (B indicates 50 < [fold] ≤ 500) | < 1 | > 1 | > 1 | > 1 | < 1 | Cc1nc(NCc2ccccc2-c2nccc3cc(NC(=O)/C=C/CN(C)C)ccc23)n2ncc(C(C)C)c2n1 [Compound 167]
4 | < 0.1 | B (B indicates 50 < [fold] ≤ 500) | B (B indicates 50 < [fold] ≤ 500) | B (B indicates 50 < [fold] ≤ 500) | < 1 | > 1 | > 1 | > 1 | < 1 | C=C(F)C(=O)Nc1ccc2c(-c3ccccc3CNc3nc(NC[C@H]4CCN(C(C)C)C[C@@H]4O)nc4c(C(C)C)cnn34)nccc2c1 [Compound 168]
5 | < 0.1 | B (B indicates 50 < [fold] ≤ 500) | B (B indicates 50 < [fold] ≤ 500) | B (B indicates 50 < [fold] ≤ 500) | < 1 | > 1 | > 1 | > 1 | < 1 | C=C(F)C(=O)Nc1ccc2c(-c3ccccc3CNc3nc(NC[C@H]4CCN(CC)C[C@@H]4O)nc4c(C(C)C)cnn34)nccc2c1 [Compound 169]
6 | 0.1 to 1 | B (B indicates 50 < [fold] ≤ 500) | B (B indicates 50 < [fold] ≤ 500) | B (B indicates 50 < [fold] ≤ 500) | 1 to 10 | > 1 | > 1 | > 1 | < 1 | C=C(F)C(=O)Nc1ccc2c(-c3ccccc3CNc3nc(N4CCc5ncccc5C4)nc4c(C(C)C)cnn34)nccc2c1 [Compound 170]
7 | < 0.1 | A (A indicates [fold] > 500) | A (A indicates [fold] > 500) | A (A indicates [fold] > 500) | < 1 | > 1 | > 1 | > 1 | < 1 | C=C(F)C(=O)Nc1ccc2c(-c3ccccc3CNc3nc(N[C@H]4CCC(C)(C)NC4)nc4c(C(C)C)cnn34)nccc2c1 [Compound 171]
8 | < 0.1 | A (A indicates [fold] > 500) | A (A indicates [fold] > 500) | A (A indicates [fold] > 500) | < 1 | > 1 | > 1 | > 1 | < 1 | C=C(F)C(=O)Nc1ccc2c(-c3ccccc3CNc3nc(NC4CCCNC4)nc4c(C(C)C)cnn34)nccc2c1 (stereo not drawn) [Compound 172]
9 | < 0.1 | A (A indicates [fold] > 500) | A (A indicates [fold] > 500) | A (A indicates [fold] > 500) | < 1 | > 1 | > 1 | > 1 | < 1 | C=C(F)C(=O)Nc1ccc2c(-c3ccccc3CNc3nc(N[C@@H]4CCCN(C)C4)nc4c(C(C)C)cnn34)nccc2c1 [Compound 173]
10 | < 0.1 | A (A indicates [fold] > 500) | A (A indicates [fold] > 500) | A (A indicates [fold] > 500) | < 1 | > 1 | > 1 | > 1 | < 1 | C=C(F)C(=O)Nc1ccc2c(-c3ccccc3CNc3nc(N[C@@H]4CCC(C)(C)NC4)nc4c(C(C)C)cnn34)nccc2c1 [Compound 174]
11 | < 0.1 | A (A indicates [fold] > 500) | A (A indicates [fold] > 500) | A (A indicates [fold] > 500) | < 1 | > 1 | > 1 | > 1 | < 1 | C=C(F)C(=O)Nc1ccc2c(-c3ccccc3CNc3nc(NC4CCC(C)(C)NC4)nc4c(C(C)C)cnn34)nccc2c1 (stereo not drawn) [Compound 175]
12 | < 0.1 | A (A indicates [fold] > 500) | A (A indicates [fold] > 500) | A (A indicates [fold] > 500) | < 1 | > 1 | > 1 | > 1 | < 1 | C=C(F)C(=O)Nc1ccc2c(-c3ccccc3CNc3nc(OC4CCC(C)(C)NC4)nc4c(C(C)C)cnn34)nccc2c1 (stereo not drawn) [Compound 177]
13 | < 0.1 | A (A indicates [fold] > 500) | A (A indicates [fold] > 500) | A (A indicates [fold] > 500) | < 1 | > 1 | > 1 | > 1 | < 1 | C=CC(=O)Nc1ccc2c(-c3ccccc3CNc3nc(NC4CCC(C)(C)NC4)nc4c(C(C)C)cnn34)nccc2c1 (stereo not drawn) [Compound 178]
14 | < 0.1 | A (A indicates [fold] > 500) | A (A indicates [fold] > 500) | A (A indicates [fold] > 500) | < 1 | > 1 | > 1 | > 1 | < 1 | CC(C)c1cnn2c(NCc3ccccc3-c3nccc4cc(NC(=O)/C=C/CN(C)C)ccc34)nc(NC3CCC(C)(C)NC3)nc12 (stereo not drawn) [Compound 179]
15 | < 0.1 | A (A indicates [fold] > 500) | A (A indicates [fold] > 500) | A (A indicates [fold] > 500) | < 1 | > 1 | > 1 | > 1 | < 1 | CC(C)c1cnn2c(NCc3ccccc3-c3nccc4cc(NC(=O)/C=C/CN5CCOCC5)ccc34)nc(NC3CCC(C)(C)NC3)nc12 (stereo not drawn) [Compound 180]
16 | < 0.1 | A (A indicates [fold] > 500) | A (A indicates [fold] > 500) | A (A indicates [fold] > 500) | < 1 | > 1 | > 1 | > 1 | < 1 | C=C(C)C(=O)Nc1ccc2c(-c3ccccc3CNc3nc(NC4CCC(C)(C)NC4)nc4c(C(C)C)cnn34)nccc2c1 (stereo not drawn) [Compound 181]

Row | SMILES | IC50 (CDK7/Cyclin H/MNAT1) [µM] | CDK1/CDK7: Selectivity of CDK7 inhibition over CDK1 inhibition (CDK7/Cyclin H/MNAT1) | CDK2/CDK7: Selectivity of CDK7 inhibition over CDK2 inhibition (CDK7/Cyclin H/MNAT1) | CDK5/CDK7: Selectivity of CDK7 inhibition over CDK5 inhibition (CDK7/Cyclin H/MNAT1) | IC50 (OVCAR-3) [µM] | IC50 (CDK2/Cyclin A) [µM] | IC50 (CDK5/p25) [µM] | IC50 (CDK1/Cyclin B) [µM] | IC50 (A2780) [µM]
17 | C=C(F)C(=O)Nc1ccc2c(-c3ccccc3CNc3nc(N[C@H]4CN5CCC4CC5)nc4c(C(C)C)cnn34)nccc2c1 [Compound 176] | < 0.1 | A (A indicates [fold] > 500) | A (A indicates [fold] > 500) | A (A indicates [fold] > 500) | < 1 | > 1 | > 1 | > 1 | < 1
